Test results as given in the SangsterLogP compilation.

Columns and labels:
[1] = method code SF-HPLC, from PMID: 1293941
[2] = method code SF-AS, from DOI: 10.1007/s001289900104, PMID: 8661852
[3] = method code SF-AS, from DOI: 10.1016/j.ejps.2010.09.003, PMID: 20854904
[4] = method code SF-AS, from DOI: 10.1016/s0045-6535(98)00368-3; settings: for logD: pH 2.0
[5] = method code SF-AS, from Jha, T.; Debnath, A.; Mazumdar, A.; Sengupta, C.; De, A. (1986). Hansch analysis of antineoplastic agents, 5-N-substituted-2-p-substituted benzenesulfonyl-L-glutamines. Ind. J. Chem., Sect. B, …
[6] = method code SF-AS, from DOI: 10.1016/j.bioorg.2006.09.003, PMID: 17078995; settings: pH 7.4
[7] = not given; remark: listed apart in the source
[8] = method code SF, from DOI: 10.1016/s0045-6535(97)00338-x
[9] = method code SF-AS, from DOI: 10.1007/bf01964075; settings: pH 2.1
[10] = not given; remark: listed apart in the source
[11] = method code SF-AS, from DOI: 10.1007/bf01648987
[12] = method code SF-AS, from DOI: 10.1002/em.2850200210, PMID: 1505530
[13] = not given; remark: listed apart in the source
[14] = method code SF-AS, from DOI: 10.1002/jps.2600630206, PMID: 4204981
[15] = method code SF-AS, from DOI: 10.1128/aac.27.1.84, PMID: 2580479
[16] = from Rich, R. (1990). Partition coefficients of quinones and their relation to biochemical reactivity. In Lenaz, G. (Ed.), Highlights in Ubiquinone Research: Proceedings of the International Symposium, …
[17] = method code SF, from DOI: 10.1248/yakushi1947.96.10_1169, PMID: 1033993; settings: pH 0.7
[18] = not given; remark: listed apart in the source
[19] = not given; remark: listed apart in the source
[20] = not given; remark: listed apart in the source

CCCCCCCCOC(=O)c1ccc(N)cc1
logP [1]: 5.02

CN(c1ccccc1)c1nc(Cl)nc(Cl)n1
logP [2]: 3.07

CN(C)CCC(=O)c1ccccc1
logD ([3]; pH 10.0): 1.77

COC(=O)c1ccccc1S(=O)(=O)NC(=O)Nc1nc(OC)cc(OC)n1
logD [4]: 1.78

Cc1c(Cl)ccc(Cc2c(Cl)cccc2Cl)c1Cl
logP: 6.58

Cc1cc(Cc2ccc(Cl)cc2Cl)c(Cl)cc1Cl
logP: 6.77

Cc1ccc(S(=O)(=O)NC(CCC(=O)NC2CCCCC2)C(=O)O)cc1 (stereo not given)
logP [5]: 0.32

CCCC(=O)OCCc1ccc(O)c(OC)c1
logD [6]: 2.54

COC(=O)CSc1ccc([N+](=O)[O-])cc1
logP [7]: 2.29

O=[N+]([O-])c1cc(F)ccc1O
logP [8]: 1.88

CNC(=O)[C@H](Cc1ccc(O)cc1)NC(C)=O
logD [9]: -0.32

O=C(Oc1ccc2cc(Br)ccc2c1)C1OC(O)C(O)C(O)C1O (stereo not given)
logP [10]: 1.97

CCCNC(=O)CCC(NS(=O)(=O)c1ccccc1)C(=O)O (stereo not given)
logP [5]: -0.08

CCCCCOC(=O)c1ccc(N)cc1
logP [1]: 3.48

Cc1cc(Cl)ccc1O
logP [11]: 2.78

CCOC(=O)/C=C/c1ccccc1
logP [11]: 2.91

O=[N+]([O-])c1ccc2ccccc2c1
logP [12]: 3.24

CNC(=O)C1CCCN1C(C)=O (stereo not given)
logD [9]: -1.19

O=C(O)CCCCCOc1cccc2ccccc12
logP [13]: 4.5

O=C(O)C1COc2ccccc2O1 (stereo not given)
logP [14]: 1.4

O=C(O)CCCOc1cccc2ccccc12
logP [13]: 3.5

Cn1nnnc1SCC1=C(C(=O)O)N2C(=O)[C@@H](NC(=O)CSCC#N)[C@H]2SC1
logD ([15]; pH 2.0): -0.62

Cc1c(C)c(O)c(C)c(C)c1O
logP [16]: 1.8

COC(=O)c1ccccc1S(N)(=O)=O
logP [4]: 0.01

CC(=O)Nc1ccc(F)cc1F
logP [8]: 1.5

CCC1(CC)C(=O)NC(=O)N(C)C1=O
logD [17]: 1.15

OCCOc1cccc2ccccc12
logP [13]: 2.5

COC(=O)CS(=O)c1ccccc1[N+](=O)[O-] (stereo not given)
logP [7]: 0.98

CC[C@H](C)[C@H](NC(C)=O)C(=O)NC
logD [9]: 0.14

Cc1ccc(OC(=O)C2OC(O)C(O)C(O)C2O)cc1 (stereo not given)
logP [10]: 0.37

O=[N+]([O-])c1cccc2c([N+](=O)[O-])cccc12
logP [12]: 2.58

CC(Oc1ccc(Cl)cc1)C(=O)O (stereo not given)
logP [14]: 2.31

c1cnn(C23CC4CC(CC(C4)C2)C3)c1
logP [18]: 3.05

O=C(Oc1ccccc1)C1OC(O)C(O)C(O)C1O (stereo not given)
logP [10]: -0.69

O=C(CCN1CCCC1)c1ccccc1
logD ([3]; pH 10.0): 1.91

NS(=O)(=O)c1ccccc1Cl
logP [4]: 0.79

c1ccc(CN2CCOCC2)cc1
logP [19]: 1.58

Cc1c(Cl)ccc(Cc2ccc(Cl)cc2Cl)c1Cl
logP: 6.85

Cc1cc(Cc2c(Cl)cccc2Cl)c(Cl)cc1Cl
logP: 6.53

Cc1c(O)ccc(O)c1C
logP [16]: 1.36

CCNC(=O)CCC(NS(=O)(=O)c1ccccc1)C(=O)O (stereo not given)
logP [5]: 0.38

COc1ccc(OC(=O)C2OC(O)C(O)C(O)C2O)cc1 (stereo not given)
logP [10]: -0.01

Fc1cccc(C2CNCCO2)c1 (stereo not given)
logP [19]: 1.42

O=C(CCNC1CCCCC1)c1ccccc1
logD ([3]; pH 11.0): 2.57

c1ccc(C2CNCCO2)cc1 (stereo not given)
logP [19]: 1.11

CC1=CC(=O)C=C(C)C1=O
logP [16]: 0.95

Nc1ccc(-c2ccc(N)cc2)cc1
logP [20]: 1.53

c1ccc2nn(C34CC5CC(CC(C5)C3)C4)nc2c1
logP [18]: 4.3

Cc1cc(O)cc(C)c1O
logP [16]: 1

COc1cc(OC)nc(NC(=O)NS(=O)(=O)c2ccccc2Cl)n1
logD [4]: 1.95

CCCCCCNC(=O)CCC(NS(=O)(=O)c1ccc(C)cc1)C(=O)O (stereo not given)
logP [5]: 0.92

O=C(O)COc1ccc(F)cc1
logD ([8]; pH 2.0): 1.57

Cc1cc(O)ccc1O
logP [16]: 0.91

c1ccc2c(c1)ncn2C12CC3CC(CC(C3)C1)C2
logP [18]: 3.64

O=C(Oc1ccc(-c2ccccc2)cc1)C1OC(O)C(O)C(O)C1O (stereo not given)
logP [10]: 1.79

CCC1(CCC(C)C)C(=O)NC(=O)N(C)C1=O (stereo not given)
logD [17]: 2.45

CCCCCCCOC(=O)c1ccc(N)cc1
logP [1]: 4.5

CN(C)Cc1ccccc1
logP [20]: 1.91

COC(=O)CS(=O)(=O)c1ccc([N+](=O)[O-])cc1
logP [7]: 0.92

O=[N+]([O-])c1c(O)nc(-c2ncncn2)nc1O
logP [2]: 2.02

CC(=O)NC1CC1c1ccccc1 (stereo not given)
logP [11]: 1.43

CCCCCNC(=O)CCC(NS(=O)(=O)c1ccccc1)C(=O)O (stereo not given)
logP [5]: -0.16

CCN1CCN(C(=O)N[C@@H](C(=O)N[C@@H]2C(=O)N3[C@@H]2SC(C)(C)[C@@H]3C(=O)O)c2ccccc2)C(=O)C1=O
logP [15]: 0.5

O=[N+]([O-])c1ccc2c(c1)Cc1cc([N+](=O)[O-])ccc1-2
logP [12]: 3.35

CN(C)c1ccccc1
logP [11]: 2.29

CCn1ccc(NS(=O)(=O)c2ccc(N)cc2)nc1=O
logP [20]: -0.2

C=CCC1(CC=C)C(=O)NC(=O)N(C)C1=O
logD [17]: 1.55

COC(=O)c1ccccc1S(=O)(=O)NC(=O)Nc1nc(C)cc(C)n1
logP [13]: 1.3

CC(=O)Oc1ccc(F)cc1
logP [8]: 1.41

CCCOC(=O)c1ccc(N)cc1
logP [1]: 2.43

CC(C(=O)O)c1ccc(N2CC=CC2)c(Cl)c1 (stereo not given)
logP [20]: 3.58

O=C(O)C1CCc2cc(Cl)ccc2O1 (stereo not given)
logP [14]: 2.4

CCC(=O)OCCc1ccc(O)c(O)c1
logD [6]: 1.2

CCCC(C)C1(CC)C(=O)NC(=O)N(C)C1=O (stereo not given)
logD [17]: 2.45

CCCC(=O)OCCc1ccc(O)c(O)c1
logD [6]: 1.77

CC(=O)OCCc1ccc(O)c(O)c1
logD [6]: 0.95

Clc1ncc(-c2ncncn2)c(Cl)n1
logP [2]: 1.32

O=C(O)CCCCOc1cccc2ccccc12
logP [13]: 4

O=C1CC(C(=O)O)Oc2ccc(Cl)cc21 (stereo not given)
logP [14]: 1.77

O=C1c2cc([N+](=O)[O-])ccc2-c2ccc([N+](=O)[O-])cc21
logP [12]: 2.84

FC(F)(F)c1cccc(C2CNCCO2)c1 (stereo not given)
logP [19]: 2.18

Clc1nc(Cl)nc(Nc2ccccc2)n1
logP [2]: 3.03

O=[N+]([O-])c1cccc2cccnc12
logP [12]: 1.44

Oc1ccc(Br)cc1Br
logP [11]: 3.48

CC(C)N1CCOC(c2ccccc2)C1 (stereo not given)
logP [19]: 2.3

[N-]=[N+]=Nc1nc(N=[N+]=[N-])nc(Nc2ccccc2)n1
logP [2]: 3.88

O=S(=O)(CBr)c1ccc(F)cc1
logP [8]: 1.74

COC(=O)c1ccccc1CS(N)(=O)=O
logP [4]: 0.37

Oc1cccc(O)c1
logD [9]: 0.83

COC(=O)CS(=O)c1ccc(Cl)cc1[N+](=O)[O-] (stereo not given)
logP [7]: 1.69

CC(=O)OCC1=C(C(=O)O)N2C(=O)[C@@H](NC(=O)CC#N)[C@H]2SC1
logP [15]: -0.45

COC(=O)CS(=O)c1ccc([N+](=O)[O-])cc1 (stereo not given)
logP [7]: 0.98

c1ccc2c(c1)cnn2C12CC3CC(CC(C3)C1)C2
logP [18]: 4.33

Cc1cc(CCO)ccc1O
logD [6]: 0.5

CO[C@@]1(NC(=O)Cc2cccs2)C(=O)N2C(C(=O)O)=C(COC(N)=O)CS[C@@H]21
logP [15]: -0.02

O=C(CCN1CCCCC1)c1ccccc1
logD ([3]; pH 10.0): 2.4

CNC(=O)[C@@H](NC(C)=O)C(C)C
logD [9]: -0.35

CCCC1(CC)C(=O)NC(=O)N(C)C1=O (stereo not given)
logD [17]: 1.65

Cc1cc(Cl)c(Cl)cc1Cc1c(Cl)cccc1Cl
logP: 6.03

c1cn(C23CC4CC(CC(C4)C2)C3)cn1
logP [18]: 2.9

O=C(O)C1Cc2cc(Cl)ccc2O1 (stereo not given)
logP [14]: 2.11

CCN1CCN(C(=O)N[C@@H](C(=O)N[C@@H]2C(=O)N3C(C(=O)O)=C(CSc4nnnn4C)CS[C@H]23)c2ccc(O)cc2)C(=O)C1=O
logP [15]: -0.74

CCCCCCOC(=O)c1ccc(N)cc1
logP [1]: 3.95

CCN(CC)CC
logP [20]: 1.36

CCN(CC)CCC(=O)c1ccccc1
logD ([3]; pH 10.0): 1.59
